In ChEMBL document CHEMBL4354877, “MymA Bioactivated Thioalkylbenzoxazole Prodrug Family Active against Mycobacterium tuberculosis” (J Med Chem, 2020):
≈ marks a conversion by molar mass, not a printed value. Calls of active or inactive are those of the source. The rule behind the calls is not given here.

What was measured:
[1] = Solubility in pH 6.5 FaSSIF incubated for 4 hrs by HPLC-UV based assay; assay type: physicochemical
[2] = test system: Mycobacterium tuberculosis; experiment: Antimycobacterial activity against Mycobacterium tuberculosis H37Rv assessed as inhibition of microbial growth incubated for 6 days by alamar blue resazurin assay; assay type: functional; conditions: 144 h
[3] = Permeability at pH 7.4 incubated for 4 hrs by PAMPA method; assay type: ADME; conditions: read-out: permeability
[4] = Stability in human liver microsomes assessed as GSH-conjugates formation at 25 uM incubated for 60 mins in presence of NADPH and GSH by LC-MS/MS analysis; assay type: ADME, Microsome; conditions: 1 h
[5] = test system: Mycobacterium tuberculosis; experiment: Antimycobacterial activity against Mycobacterium tuberculosis H37Rv infected in C57BL/6 mouse model of acute infection assessed as reduction in mycobacterial load in lung at 200 mg/kg dosed once per day for 8 days co-dosed with 50 mg/kg/day CYP inhibitor ABT; assay type: functional, organism-based
[6] = Kinetic aqueous solubility in pH 7.4 PBS incubated for 1 hr by CLND assay; assay type: physicochemical; conditions: read-out: Kinetic_solubility
[7] = Intrinsic clearance in human liver microsomes at 0.5 uM incubated for 45 mins in presence of NADPH by LC-MS/MS analysis; assay type: ADME, Microsome; conditions: 0.75 h
[8] = molecular target: T1, Cytochrome P450 3A4 (Homo sapiens, UniProt P08684); experiment: Inhibition of CYP3A4 (unknown origin) in presence of cofactor; assay type: ADME
[9] = molecular target: T1, Cytochrome P450 3A4; experiment: Inhibition of CYP3A4 (unknown origin) in absence of cofactor; assay type: ADME
[10] = test system: THP-1; experiment: Cytotoxicity in human THP1 cells assessed as reduction in cell viability incubated for 5 days hrs by ATPLite assay; assay type: cell-based; conditions: THP-1, 120 h
[11] = test system: Hepatocyte; experiment: Cytotoxicity in human primary hepatocytes assessed as reduction in cell viability up to 100 uM incubated for 72 hrs by MTT assay; assay type: cell-based
[12] = test system: Mycobacterium tuberculosis; experiment: Antimycobacterial activity against Mycobacterium tuberculosis extracellular forms assessed as inhibition of microbial growth; assay type: functional
[13] = Intrinsic clearance in mouse liver microsomes at 0.5 uM incubated for 45 mins in presence of NADPH by LC-MS/MS analysis; assay type: ADME, Microsome; conditions: 0.75 h
[14] = test system: HepG2; experiment: Cytotoxicity in human HepG2 cells assessed as reduction in cell viability incubated for 48 hrs by Cell-titer Glo kit based assay; conditions: HepG2, 48 h
[15] = test system: Mycobacterium tuberculosis; experiment: Antimycobacterial activity against Mycobacterium tuberculosis H37Rv intracellular forms infected in human THP1 cells assessed as inhibition of microbial growth incubated for 5 days by luciferase reporter gene assay; assay type: functional; conditions: THP-1, 120 h

T1 sequence (P08684 whole entry): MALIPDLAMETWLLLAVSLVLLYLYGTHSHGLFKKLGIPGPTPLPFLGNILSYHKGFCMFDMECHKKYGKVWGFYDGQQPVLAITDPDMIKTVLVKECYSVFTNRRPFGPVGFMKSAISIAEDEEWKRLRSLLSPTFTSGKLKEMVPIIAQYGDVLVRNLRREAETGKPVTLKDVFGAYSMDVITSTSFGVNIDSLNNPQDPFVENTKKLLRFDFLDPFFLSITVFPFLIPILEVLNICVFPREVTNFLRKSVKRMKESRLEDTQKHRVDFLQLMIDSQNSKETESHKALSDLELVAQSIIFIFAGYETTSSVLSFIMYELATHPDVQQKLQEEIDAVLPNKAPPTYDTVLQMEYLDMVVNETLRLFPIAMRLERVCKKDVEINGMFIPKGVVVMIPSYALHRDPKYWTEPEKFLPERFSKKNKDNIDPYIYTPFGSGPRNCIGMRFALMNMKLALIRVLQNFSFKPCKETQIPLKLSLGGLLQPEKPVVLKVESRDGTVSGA

Compound: O=C(CCSc1nc2cc(Cl)ccc2o1)N1CCCC1
- solubility at 4 h [1]: 8 µg/mL (≈ 25.7 µM)
- MIC [2]: 10 µM
- Papp at 4 h [3]: 78 ×10⁻⁶ cm/s
- Stability [4]: Stable
- Activity [5]: inactive
- solubility kinetic at 1 h [6]: > 362 µM
- CLH [7]: 5.8 mL/min/g
- IC50 [8]: > 39.8 µM
- IC50 [9]: > 39.8 µM
- IC50 [10]: > 50 µM
- Activity [11]: Non-Toxic
- MIC [12]: 10 µM
- CLH [13]: 131 to 132 mL/min/g
- IC50 [14]: > 100 µM
- IC90 [15]: 2.8 µM

Compound: O=C(CCSc1nc2cc(Cl)ccc2[nH]1)N1CCCC1
- CLH [7]: 9.2 mL/min/g
- CLH [13]: 56.8 mL/min/g
- IC90 [15]: > 50 µM

Compound: O=C(CSc1nc2cc(Cl)ccc2o1)N1CCCC1
- CLH [7]: 1.6 mL/min/g
- CLH [13]: 153.6 mL/min/g
- IC90 [15]: 36 µM

Compound: O=C(CCSc1nc2cc(Cl)ccc2o1)N1CCC1
- CLH [7]: 3.7 mL/min/g
- CLH [13]: 17.9 mL/min/g
- IC90 [15]: > 50 µM

Compound: O=C(CCSc1nc2cc(N3CCOCC3)ccc2o1)N1CCCC1
- CLH [7]: 1.1 mL/min/g
- CLH [13]: 18.7 mL/min/g
- IC90 [15]: 27.2 µM

Compound: O=C(CCCSc1nc2cc(Cl)ccc2o1)N1CCCC1
- CLH [7]: 3.4 mL/min/g
- CLH [13]: 124.8 mL/min/g
- IC90 [15]: 2.3 µM

Compound: O=C(CCSc1nc2ccccc2o1)N1CCCC1
- CLH [7]: 5.1 mL/min/g
- CLH [13]: 161.2 mL/min/g
- IC90 [15]: 4.4 µM

Compound: CN(C)C(=O)CCSc1nc2cc(Cl)ccc2o1
- CLH [7]: 2.7 mL/min/g
- CLH [13]: 41.8 mL/min/g
- IC90 [15]: 30 µM

Compound: O=C(CCCc1nc2cc(Cl)ccc2o1)N1CCCC1
- CLH [7]: 1.4 mL/min/g
- CLH [13]: 115.2 mL/min/g
- IC90 [15]: > 50 µM

Compound: CS(=O)(=O)C1CCN(C(=O)CCSc2nc3cc(Cl)ccc3o2)C1 (racemic)
- CLH [7]: < 0.4 mL/min/g
- CLH [13]: 2.1 mL/min/g
- IC90 [15]: > 50 µM

Compound: CS(=O)(=O)C1CCN(C(=O)CCSc2nc3cc(Cl)ccc3o2)CC1
- CLH [7]: 0.5 mL/min/g
- CLH [13]: 2.6 mL/min/g
- IC90 [15]: > 50 µM

Compound: O=C(CCSc1nc2c(Cl)cccc2o1)N1CCCC1
- CLH [7]: 15.8 mL/min/g
- CLH [13]: 97.9 mL/min/g
- IC90 [15]: 24.3 µM

Compound: O=C(CCSc1nc2cc(Cl)ccc2s1)N1CCCC1
- CLH [7]: 15 mL/min/g
- CLH [13]: 67 mL/min/g
- IC90 [15]: 15.6 µM

Compound: CN1CCN(C(=O)CCSc2nc3cc(Cl)ccc3o2)CC1
- CLH [7]: 1.5 mL/min/g
- CLH [13]: 41.5 mL/min/g
- IC90 [15]: 17.2 µM

Compound: O=C(CCNc1nc2cc(Cl)ccc2o1)N1CCCC1
- CLH [7]: 2.3 mL/min/g
- CLH [13]: 81.1 mL/min/g
- IC90 [15]: > 50 µM

Compound: O=S1(=O)CCCN1CCCSc1nc2cc(Cl)ccc2o1
- CLH [7]: 4.7 mL/min/g
- CLH [13]: 115.2 mL/min/g
- IC90 [15]: 7.7 µM

Compound: CC(CC(=O)N1CCCC1)Sc1nc2cc(Cl)ccc2o1 (stereo not drawn)
- CLH [7]: 8.6 mL/min/g
- CLH [13]: 165.1 mL/min/g
- IC90 [15]: 4 µM

Compound: CCN(CC)C(=O)CCSc1nc2cc(Cl)ccc2o1
- CLH [7]: 5.9 mL/min/g
- CLH [13]: 107.5 mL/min/g
- IC90 [15]: 3.9 µM

Compound: Cc1ccc2oc(SCCC(=O)N3CCCC3)nc2c1
- CLH [7]: 9.3 mL/min/g
- IC90 [15]: 8.4 µM

Compound: O=C(CCSc1nc2cc(Cl)ccc2o1)N1CCS(=O)(=O)CC1
- CLH [7]: 0.4 mL/min/g
- CLH [13]: 2.3 mL/min/g
- IC90 [15]: > 50 µM

Compound: CC1CCN(C(=O)CCSc2nc3cc(Cl)ccc3o2)C1 (stereo not drawn)
- CLH [7]: 10.1 mL/min/g
- CLH [13]: 90.7 mL/min/g
- IC90 [15]: 3.1 µM

Compound: O=C(CCSc1nc(-c2ccccc2)co1)N1CCCC1
- CLH [7]: 20.9 mL/min/g
- IC90 [15]: > 50 µM

Compound: CCNC(=O)CCSc1nc2cc(Cl)ccc2o1
- IC90 [15]: > 50 µM

Compound: O=C(CCSc1nc2cc(F)ccc2o1)N1CCS(=O)(=O)CC1
- CLH [7]: 0.4 mL/min/g
- CLH [13]: 1.5 mL/min/g
- IC90 [15]: > 50 µM

Compound: O=C(CCSc1nc2cc(Cl)ccc2o1)N1CCS(=O)(=O)C1
- CLH [7]: 1.7 mL/min/g
- CLH [13]: 8.9 mL/min/g
- IC90 [15]: > 50 µM

Compound: O=C(CCSc1nc2cc(Cl)ccc2o1)NC1CCCC1
- CLH [7]: 11.3 mL/min/g
- IC90 [15]: > 50 µM

Compound: O=C(CCSc1nc2cc(Cl)ccc2o1)N1CCC(F)(F)C1
- CLH [7]: 11.3 mL/min/g
- CLH [13]: 83.6 mL/min/g
- IC90 [15]: 1.1 µM

Compound: Cc1nc(SCCC(=O)N2CCCC2)oc1C
- CLH [7]: < 0.4 mL/min/g
- CLH [13]: 3.9 mL/min/g
- IC90 [15]: > 50 µM

Compound: O=C(CCSc1nc2cc(Cl)ccc2o1)N1CCCCC1
- CLH [7]: 10.7 mL/min/g
- CLH [13]: 127.7 mL/min/g
- IC90 [15]: 2.5 µM

Compound: O=C(CCSc1nc2ccc(Cl)cc2o1)N1CCCC1
- CLH [7]: 6.6 mL/min/g
- CLH [13]: 109.4 mL/min/g
- IC90 [15]: 1.6 µM

Compound: CN(C(=O)CCSc1nc2cc(Cl)ccc2o1)C1CCS(=O)(=O)CC1
- solubility at 4 h [1]: 178 µg/mL (≈ 442 µM)
- Papp at 4 h [3]: 44 ×10⁻⁶ cm/s
- solubility kinetic at 1 h [6]: > 328 µM
- CLH [7]: < 0.4 mL/min/g
- MIC [12]: 40 µM
- CLH [13]: 0.7 mL/min/g
- IC50 [14]: > 100 µM
- IC90 [15]: 7.7 µM

Compound: CN(CCC(=O)N1CCCC1)c1nc2cc(Cl)ccc2o1
- CLH [7]: 1.9 mL/min/g
- IC90 [15]: > 50 µM

Compound: O=C(CSCc1nc2cc(Cl)ccc2o1)N1CCCC1
- CLH [7]: 1.5 mL/min/g
- CLH [13]: 71.8 mL/min/g
- IC90 [15]: > 50 µM

Compound: COc1ccc2oc(SCCC(=O)N3CCCC3)nc2c1
- CLH [7]: 6.1 mL/min/g
- CLH [13]: 197.8 mL/min/g
- IC90 [15]: 4 µM

Compound: O=C(CCSc1nc2ccncc2o1)N1CCCC1
- CLH [7]: 0.9 mL/min/g
- CLH [13]: 5.7 mL/min/g
- IC90 [15]: > 50 µM

Compound: O=C(CCSc1nc2cc(F)c(F)cc2o1)N1CCCC1
- CLH [7]: 6.5 mL/min/g
- CLH [13]: 45.9 mL/min/g
- IC90 [15]: 1.3 µM

Compound: O=C(CCSc1nc2ncccc2o1)N1CCCC1
- CLH [7]: 0.7 mL/min/g
- CLH [13]: 18.6 mL/min/g
- IC90 [15]: > 50 µM

Compound: CN(C(=O)CCSc1nc2cc(F)ccc2o1)C1CCS(=O)(=O)CC1
- CLH [7]: < 0.4 mL/min/g
- CLH [13]: 0.6 mL/min/g
- IC90 [15]: > 50 µM

Compound: CS(=O)(=O)N1CCN(C(=O)CCSc2nc3cc(Cl)ccc3o2)CC1
- CLH [7]: 0.6 mL/min/g
- CLH [13]: 1.4 mL/min/g
- IC90 [15]: 20.4 µM

Compound: O=C(CCSc1nc2cc(F)ccc2o1)N1CCCC1
- CLH [7]: 5.2 mL/min/g
- CLH [13]: 115.2 mL/min/g
- IC90 [15]: 1.6 µM

Compound: O=C1CCCN1CCCSc1nc2cc(Cl)ccc2o1
- CLH [7]: 4.8 mL/min/g
- CLH [13]: 51 mL/min/g
- IC90 [15]: 6.5 µM

Compound: CC1CCCN1C(=O)CCSc1nc2cc(Cl)ccc2o1 (racemic)
- CLH [7]: 8.5 mL/min/g
- CLH [13]: 98 mL/min/g
- IC90 [15]: 25.5 µM

Compound: O=C(CCSc1nc2cnccc2o1)N1CCCC1
- CLH [7]: 0.6 mL/min/g
- CLH [13]: 3.1 mL/min/g
- IC90 [15]: 35.1 µM

Compound: O=C(CCSc1nc2cccc(Cl)c2o1)N1CCCC1
- CLH [7]: 13.5 mL/min/g
- CLH [13]: 121.9 mL/min/g
- IC90 [15]: 2.7 µM

Compound: Clc1ccc2oc(SCCCN3CCCC3)nc2c1
- CLH [7]: 1.9 mL/min/g
- CLH [13]: 10.4 mL/min/g
- IC90 [15]: 42.6 µM

Compound: O=C(CCSc1ncc(-c2ccccc2)o1)N1CCCC1
- CLH [7]: 11 mL/min/g
- CLH [13]: 176.6 mL/min/g
- IC90 [15]: > 50 µM

Compound: CSc1nc2cc(Cl)ccc2o1
- CLH [7]: 19 mL/min/g
- CLH [13]: > 46.1 mL/min/g
- IC90 [15]: > 50 µM

Compound: CN(C(=O)CCSc1nc2cc(Cl)ccc2o1)C1CCS(=O)(=O)C1 (stereo not drawn)
- CLH [7]: 1.5 mL/min/g
- CLH [13]: 0.8 mL/min/g
- IC90 [15]: 25.4 µM

Compound: O=C(CCSc1nc2cc(Cl)ccc2o1)N1CCOCC1
- CLH [7]: 2.2 mL/min/g
- CLH [13]: 36.5 mL/min/g
- IC90 [15]: 11.4 µM
